From the supplement of paper PMC10307832

Legend:
Test in all cases: relative viability (nuclei count vs DMSO), 5 days (fraction); higher = more cells survive
VE-821 + Luminespib = compound: CS(=O)(=O)c1ccc(-c2cnc(N)c(C(=O)Nc3ccccc3)n2)cc1 [VE-821] + CCNC(=O)c1noc(-c2cc(C(C)C)c(O)cc2O)c1-c1ccc(CN2CCOCC2)cc1 [Luminespib] (partner 0.01 µM)
Summary of the method: (§1)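 A single step with final 0.05% Triton X-100, 1% formaldehyde and 1 ug/ml Hoechst fixed the cells and stained nuclei 5 days after treatment. Lung cancer cell lines in 1536-well plates had been treated by pin tool the day after seeding with one drug alone or a fixed anchor-drug dose plus five library-drug doses (not always all listed) in √10 steps, and nuclei were counted on 4× images. Relative viability is the ratio of nuclei in treated wells to nuclei in vehicle wells, taken as the median of duplicate plates.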

Vismodegib + Vorinostat = compound: CS(=O)(=O)c1ccc(C(=O)Nc2ccc(Cl)c(-c3ccccn3)c2)c(Cl)c1 [Vismodegib] + O=C(CCCCCCC(=O)Nc1ccccc1)NO [Vorinostat] (partner 1 µM)
Summary of the method: as §1

Ruxolitinib + Pictilisib = compound: N#CC[C@H](C1CCCC1)n1cc(-c2ncnc3[nH]ccc23)cn1 [Ruxolitinib] + CS(=O)(=O)N1CCN(Cc2cc3nc(-c4cccc5[nH]ncc45)nc(N4CCOCC4)c3s2)CC1 [Pictilisib] (partner 1 µM)
Summary of the method: as §1

Ruxolitinib + Vorinostat = compound: N#CC[C@H](C1CCCC1)n1cc(-c2ncnc3[nH]ccc23)cn1 [Ruxolitinib] + O=C(CCCCCCC(=O)Nc1ccccc1)NO [Vorinostat] (partner 1 µM)
Summary of the method: as §1

| Cell Line | relative viability (VE-821 + Luminespib; first compound 0.08 µM) | relative viability (VE-821 + Luminespib; first compound 0.253 µM) | relative viability (VE-821 + Luminespib; first compound 0.8 µM) | relative viability (VE-821 + Luminespib; first compound 2.53 µM) | relative viability (VE-821 + Luminespib; first compound 8 µM) | relative viability (Vismodegib + Vorinostat; first compound 0.08 µM) | relative viability (Vismodegib + Vorinostat; first compound 0.253 µM) | relative viability (Vismodegib + Vorinostat; first compound 0.8 µM) | relative viability (Vismodegib + Vorinostat; first compound 2.53 µM) | relative viability (Vismodegib + Vorinostat; first compound 8 µM) | relative viability (Ruxolitinib + Pictilisib; first compound 0.08 µM) | relative viability (Ruxolitinib + Pictilisib; first compound 0.253 µM) | relative viability (Ruxolitinib + Pictilisib; first compound 0.8 µM) | relative viability (Ruxolitinib + Pictilisib; first compound 2.53 µM) | relative viability (Ruxolitinib + Pictilisib; first compound 8 µM) | relative viability (Ruxolitinib + Vorinostat; first compound 0.08 µM) | relative viability (Ruxolitinib + Vorinostat; first compound 0.253 µM) | relative viability (Ruxolitinib + Vorinostat; first compound 0.8 µM) | relative viability (Ruxolitinib + Vorinostat; first compound 2.53 µM) | relative viability (Ruxolitinib + Vorinostat; first compound 8 µM) |
| --- | --- | --- | --- | --- | --- | --- | --- | --- | --- | --- | --- | --- | --- | --- | --- | --- | --- | --- | --- | --- |
| NCI-H1355 | 0.71 | 0.665 | 0.643 | 0.597 | 0.409 | 0.716 | 0.632 | 0.569 | 0.611 | 0.648 | 0.385 | 0.391 | 0.386 | 0.329 | 0.352 | 0.69 | 0.564 | 0.691 | 0.6 | 0.536 |
| NCI-H1395 | 0.7 | 0.677 | 0.704 | 0.636 | 0.525 | 0.681 | 0.663 | 0.614 | 0.522 | 0.8 |  | 0.553 | 0.645 | 0.584 | 0.601 | 0.577 | 0.506 | 0.743 | 0.717 | 0.654 |
| NCI-H1437 | 1.19 | 1.15 | 1.06 | 1.19 | 0.878 | 0.824 | 0.756 | 0.806 | 0.732 | 0.804 | 0.533 | 0.351 | 0.43 | 0.429 | 0.397 | 1.14 | 1.04 | 1.1 | 0.859 | 0.627 |
| NCI-H1650 | 0.204 | 0.19 | 0.25 | 0.211 | 0.172 | 0.568 | 0.523 | 0.48 | 0.543 | 0.569 |  | 0.608 | 0.734 | 0.551 | 0.645 | 0.558 | 0.557 | 0.708 | 0.551 | 0.57 |
| NCI-H1651 | 0.907 | 0.819 | 0.63 | 1.16 | 0.679 | 0.581 | 0.582 | 0.547 | 0.49 | 0.503 | 0.742 | 0.599 | 0.727 | 0.477 | 0.664 | 0.601 | 0.52 | 0.523 | 0.472 | 0.573 |
| NCI-H1666 | 1.04 | 1.01 | 1.1 | 1.03 | 0.761 | 1.04 | 0.957 | 1 | 1.01 | 1.06 | 0.384 | 0.453 | 0.483 | 0.415 | 0.611 | 1.05 | 1.07 | 1.1 | 1.08 | 1.14 |
| NCI-H1734 | 0.199 | 0.197 | 0.208 | 0.165 | 0.193 | 0.791 | 0.732 | 0.821 | 0.723 | 0.737 | 0.479 | 0.417 | 0.435 | 0.37 | 0.468 | 0.886 | 0.806 | 0.902 | 0.797 | 0.863 |
| NCI-H1755 | 0.514 | 0.344 | 0.427 | 0.468 | 0.201 | 0.836 | 0.659 | 0.85 | 0.809 | 0.762 | 0.425 | 0.43 | 0.469 | 0.329 | 0.297 | 0.749 | 0.713 | 0.766 | 0.712 | 0.61 |
| NCI-H1793 | 0.155 | 0.234 | 0.175 | 0.162 | 0.121 |  | 0.717 | 0.733 | 0.734 | 0.748 | 0.311 | 0.409 | 0.25 | 0.38 | 0.282 | 0.832 | 0.87 | 0.823 | 0.877 | 0.872 |
| NCI-H1915 | 0.816 | 0.752 | 0.698 | 0.726 | 0.525 | 0.491 | 0.488 | 0.497 | 0.434 | 0.534 | 0.894 | 0.925 | 0.952 | 0.803 | 0.835 | 0.467 | 0.488 | 0.565 | 0.461 | 0.332 |
| NCI-H1944 | 0.835 | 0.698 | 0.421 | 0.803 | 0.416 | 0.592 | 0.522 | 0.735 |  | 0.568 | 0.362 | 0.334 | 0.381 | 0.323 | 0.332 | 0.63 | 0.537 | 0.605 | 0.483 | 0.521 |
| NCI-H1975 | 0.213 | 0.197 | 0.26 | 0.193 | 0.193 | 0.63 | 0.683 | 0.738 | 0.744 | 0.687 | 0.302 | 0.254 | 0.285 | 0.243 | 0.231 | 0.736 | 0.633 | 0.691 | 0.59 | 0.483 |
| NCI-H1993 | 1.1 | 0.857 | 0.67 | 0.655 | 0.704 | 0.854 | 0.69 | 0.728 | 0.779 | 0.794 | 0.809 | 0.754 | 0.855 | 0.781 | 0.846 | 0.81 | 0.754 | 0.102 | 0.822 | 0.75 |
| NCI-H2009 | 1.03 | 0.974 | 0.918 | 1.09 | 0.863 | 0.724 | 0.921 | 0.723 | 0.708 | 0.722 | 0.913 | 0.901 | 0.987 | 0.508 | 0.658 | 0.715 | 0.71 | 0.722 | 0.631 | 0.507 |
| NCI-H2023 | 0.734 | 0.624 | 0.458 | 0.212 | 0.125 | 0.625 | 0.53 | 0.711 | 0.654 | 0.612 | 0.251 | 0.188 | 0.247 | 0.215 | 0.228 | 0.661 | 0.667 | 0.95 | 0.581 | 0.798 |
| NCI-H2085 | 0.439 | 0.457 | 0.385 | 0.411 | 0.309 | 0.743 | 0.835 | 0.821 | 0.852 | 0.727 | 0.564 | 0.469 | 0.419 | 0.463 | 0.611 | 0.865 | 0.802 | 0.891 | 0.667 | 0.695 |
